What was measured:
[1] = target: T1, Chemerin-like receptor 1 (Homo sapiens) (UniProt Q99788); conditions: CAL1
T1 sequence (whole entry): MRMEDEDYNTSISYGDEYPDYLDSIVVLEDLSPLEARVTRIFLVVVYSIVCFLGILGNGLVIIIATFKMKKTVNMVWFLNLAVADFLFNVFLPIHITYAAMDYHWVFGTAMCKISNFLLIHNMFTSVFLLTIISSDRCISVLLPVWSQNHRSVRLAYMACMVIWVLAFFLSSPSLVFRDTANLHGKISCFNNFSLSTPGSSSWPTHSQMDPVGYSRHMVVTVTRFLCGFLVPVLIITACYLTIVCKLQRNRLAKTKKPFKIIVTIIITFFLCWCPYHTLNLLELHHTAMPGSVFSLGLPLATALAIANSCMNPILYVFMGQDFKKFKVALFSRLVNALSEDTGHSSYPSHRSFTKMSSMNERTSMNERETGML

[2] = Drug concentration in cynomolgus monkey plasma at 1 mg/kg, po after 8 hrs; type: ADME, organism-based, Macaca fascicularis
[3] = Cmax in cynomolgus monkey at 1 mg/kg, po; type: ADME, organism-based, Macaca fascicularis; design: dose 1 mg/kg, route po; conditions: in vivo
[4] = AUC(0 to infinity) in cynomolgus monkey at 1 mg/kg, po; type: ADME, organism-based, Macaca fascicularis; design: time infinity, dose 1 mg/kg, route po; conditions: in vivo
[5] = Tmax in cynomolgus monkey at 1 mg/kg, po; type: ADME, organism-based, Macaca fascicularis; conditions: in vivo
[6] = Half life in cynomolgus monkey at 1 mg/kg, po; type: ADME, organism-based, Macaca fascicularis; conditions: in vivo
[7] = MRT in cynomolgus monkey at 1 mg/kg, po; type: ADME, organism-based, Macaca fascicularis; conditions: in vivo
[8] = Cmax in cynomolgus monkey at 0.3 mg/kg, po; type: ADME, organism-based, Macaca fascicularis; design: dose 0.3 mg/kg, route po; conditions: in vivo
[9] = Drug concentration in cynomolgus monkey plasma at 0.3 mg/kg, po after 8 hrs; type: ADME, organism-based, Macaca fascicularis
[10] = Tmax in cynomolgus monkey at 0.3 mg/kg, po; type: ADME, organism-based, Macaca fascicularis; conditions: in vivo
[11] = Half life in cynomolgus monkey at 0.3 mg/kg, po; type: ADME, organism-based, Macaca fascicularis; conditions: in vivo
[12] = AUC(0 to infinity) in cynomolgus monkey at 0.3 mg/kg, po; type: ADME, organism-based, Macaca fascicularis; design: time infinity, dose 0.3 mg/kg, route po; conditions: in vivo
[13] = MRT in cynomolgus monkey at 0.3 mg/kg, po; type: ADME, organism-based, Macaca fascicularis; conditions: in vivo
[14] = Cmax in cynomolgus monkey at 0.3 to 1 mg/kg, po; type: ADME, organism-based, Macaca fascicularis; design: route po; conditions: in vivo, dose 0.3-1 mg/kg
[15] = Tmax in cynomolgus monkey at 0.3 to 1 mg/kg, po; type: ADME, organism-based, Macaca fascicularis; conditions: in vivo, dose 0.3-1 mg/kg
[16] = Half life in cynomolgus monkey at 0.3 to 1 mg/kg, po; type: ADME, organism-based, Macaca fascicularis; conditions: in vivo, dose 0.3-1 mg/kg
[17] = AUC(0 to infinity) in cynomolgus monkey at 0.3 to 1 mg/kg, po; type: ADME, organism-based, Macaca fascicularis; design: route po; conditions: in vivo, dose 0.3-1 mg/kg
[18] = MRT in cynomolgus monkey at 0.3 to 1 mg/kg, po; type: ADME, organism-based, Macaca fascicularis; conditions: in vivo, dose 0.3-1 mg/kg
[19] = target: T2, Chemerin-like receptor 1 (Homo sapiens, UniProt Q99788); test: Inhibition of human ChemR23 expressed in CAL-1 cells assessed as reduction in chemerin-induced calcium signaling; type: functional, cell-based, CAL1
T2 sequence (Q99788 whole entry): T1 sequence (whole entry)

Row | SMILES | IC80 [1] | concentration at 8 h [2] | Cmax [3] | AUC(0-inf) [4] | other results
1 | Cc1ccc(-c2nc(=O)o[nH]2)c(-c2ccc([C@@H](C)N(CC3CC3)c3nc(C(=O)NS(=O)(=O)C4CC4)c(-c4ccccc4)s3)cc2)c1 | > 330 nM |  |  |  | 
2 | Cc1sc(N(CC2CC2)[C@H](C)c2ccc(-c3cc(Cl)ccc3-c3nc(=O)o[nH]3)cc2)nc1C(=O)NS(C)(=O)=O |  | 4.2 ng/mL | 216 ng/mL | 726 ng·h/mL | 
3 | Cc1ccc(-c2nc(=O)o[nH]2)c(-c2ccc([C@@H](C)N(CC3CC3)c3nc(C(=O)NS(=O)(=O)C4CC4)c(-c4ccncc4)s3)cc2)c1 | 74 nM |  |  |  | 
4 | Cc1sc(N(CC2CC2)[C@H](C)c2ccc(-c3cc(Cl)ccc3-c3nc(=O)o[nH]3)cc2)nc1C(=O)NS(=O)(=O)C1CC1 |  | 18 ng/mL | 1210 ng/mL | 3740 ng·h/mL | 
5 | Cc1ccc(-c2nc(=O)s[nH]2)c(-c2ccc([C@@H](C)N(CC3CC3)c3nc(C(=O)NS(=O)(=O)C4CC4)c(C4CC4)s3)cc2)c1 |  | 2090 ng/mL | 4190 ng/mL | 39800 ng·h/mL | Tmax [5]: 4 h; half-life [6]: 192 min; MRT [7]: 6.5 h
6 | CCONC(=O)c1ccc(Cl)cc1-c1ccc([C@@H](C)N(CC2CC2)c2nc(C(=O)NS(=O)(=O)C3CC3)c(C3CC3)s2)cc1 |  |  |  |  | Cmax [8]: 296 ng/mL; concentration at 8 h [9]: 87.7 ng/mL; Tmax [10]: 4 h; half-life [11]: 156 min; AUC(0-inf) [12]: 2060 ng·h/mL; MRT [13]: 5.3 h
7 | CCS(=O)(=O)NC(=O)c1nc(N(CC2CC2)[C@H](C)c2ccc(-c3cc(Cl)ccc3-c3nc(=O)o[nH]3)cc2)sc1C |  | 14 ng/mL | 716 ng/mL | 2170 ng·h/mL | 
8 | CNC(=O)c1ccc(C)cc1-c1ccc([C@@H](C)N(CC2CC2)c2nc(C(=O)NS(=O)(=O)C3CC3)c(C3CC3)s2)cc1 | 57 nM | 996 ng/mL | 2810 ng/mL | 21400 ng·h/mL | Tmax [5]: 4 h; half-life [6]: 180 min; MRT [7]: 6.1 h
9 | Cc1sc(N(CC2CC2)[C@H](C)c2ccc(-c3cc(Cl)ccc3-c3nc(=O)o[nH]3)cc2)nc1C(=O)NS(=O)(=O)C1CCCC1 | 66 nM | 10 ng/mL | 722 ng/mL | 1730 ng·h/mL | 
10 | Cc1sc(N(CC2CC2)[C@H](C)c2ccc(-c3cc(Cl)ccc3-c3nc(=O)o[nH]3)cc2)nc1C(=O)NS(=O)(=O)C1(C)CC1 | 110 nM |  |  |  | 
11 | CCCc1sc(N(CC2CC2)[C@H](C)c2ccc(-c3cc(C)ccc3-c3nc(=O)o[nH]3)cc2)nc1C(=O)NS(=O)(=O)C1CC1 | 25 nM |  |  |  | 
12 | Cc1ccc(-c2nc(=O)o[nH]2)c(-c2ccc([C@@H](C)N(CC3CC3)c3nc(C(=O)NS(=O)(=O)C4CC4)c(-c4ccsc4)s3)cc2)c1 | > 330 nM |  |  |  | 
13 | Cc1ccc(-c2nc(=O)o[nH]2)c(-c2ccc([C@@H](C)N(CC3CC3)c3nc(C(=O)NS(=O)(=O)C4CC4)c(C(C)C)s3)cc2)c1 | 18 nM | 1140 ng/mL |  |  | Cmax [14]: 5670 ng/mL; Tmax [15]: 4 h; half-life [16]: 144 min; AUC(0-inf) [17]: 33800 ng·h/mL; MRT [18]: 5.2 h
14 | Cc1ccc(-c2nc(=O)o[nH]2)c(-c2ccc([C@@H](C)N(CC3CC3)c3nc(C(=O)NS(=O)(=O)C4CC4)c(-c4ccoc4)s3)cc2)c1 | > 330 nM |  |  |  | 
15 | Cc1ccc(-c2nc(=O)o[nH]2)c(-c2ccc([C@@H](C)N(CC3CC3)c3nc(C(=O)NS(=O)(=O)C4CC4)c(-c4cccnc4)s3)cc2)c1 | 39 nM |  |  |  | 
16 | Cc1ccc(-c2nc(=O)o[nH]2)c(-c2ccc([C@@H](C)N(CC3CC3)c3nc(C(=O)NS(=O)(=O)C4CC4)c(C)s3)cc2)c1 | 53 nM | 233 ng/mL |  |  | Cmax [14]: 3180 ng/mL; Tmax [15]: 3.3 h; half-life [16]: 126 min; AUC(0-inf) [17]: 12500 ng·h/mL; MRT [18]: 4.2 h
17 | CCNC(=O)CCC(=O)N1Cc2ccccc2-c2nnn(CCOCCOCCOCCOCCOCCOCCNC(=O)c3ccc(Cl)cc3-c3ccc([C@@H](C)N(CC4CC4)c4nc(C(=O)NS(=O)(=O)C5CC5)c(C5CC5)s4)cc3)c2-c2ccccc21 |  |  |  |  | IC50 [19]: 9.1 nM

From ChEMBL document CHEMBL5154705, “Discovery and mechanistic study of thiazole-4-acylsulfonamide derivatives as potent and orally active ChemR23 inhibitors with a long-acting effect in cynomolgus monkeys” (Bioorg Med Chem, 2022)
